Data from US8598365B2, “Herbicides” (Syngenta Limited, priority 2007, dated 2013).

How the values were obtained:
Format in all cases: in vivo
[1] = tested on: Echinochloa crus-galli (ECHCG); assay: Example B pre-emergence herbicidal activity; conditions: 312 h, rate 250 g/ha, evaluated after 13 days, read-out: Pre-Emergence Activity ECHCG (100=total damage to plant; 0=no damage to plant)
Procedure: (§1) Seeds of a variety of test species were sown in standard soil in pots. After cultivation for one day (pre-emergence) or after 8 days cultivation (post-emergence) under controlled conditions in a glasshouse (at 24/16° C., day/night; 14 hours light; 65% humidity), the plants were sprayed with an aqueous spray solution derived from the formulation of the technical active ingredient in acetone/water (50:50) solution containing 0.5% Tween 20 (polyoxyethelyene sorbitan monolaurate, CAS RN 9005-64-5).
(§2) The test plants were then grown in a glasshouse under controlled conditions in a glasshouse (at 24/16° C., day/night; 14 hours light; 65% humidity) and watered twice daily. After 13 days for pre and post-emergence, the test was evaluated (100=total damage to plant; 0=no damage to plant).
(§3) Alopecurus myosuroides (ALOMY), Avena fatua (AVEFA), Setaria faberi (SETFA), Echinochloa crus-galli (ECHCG), Solanum nigrum (SOLNI) and Amaranthus retoflexus (AMARE)

[2] = tested on: Avena fatua (AVEFA); assay: Example B pre-emergence herbicidal activity; conditions: 312 h, rate 250 g/ha, evaluated after 13 days, read-out: Pre-Emergence Activity AVEFA (100=total damage to plant; 0=no damage to plant)
Procedure: as §1, §2, §3

[3] = tested on: Setaria faberi (SETFA); assay: Example B pre-emergence herbicidal activity; conditions: 312 h, rate 250 g/ha, evaluated after 13 days, read-out: Pre-Emergence Activity SETFA (100=total damage to plant; 0=no damage to plant)
Procedure: as §1, §2, §3

[4] = tested on: Amaranthus retoflexus (AMARE); assay: Example B pre-emergence herbicidal activity; conditions: Amaranthus retroflexus, 312 h, rate 250 g/ha, evaluated after 13 days, read-out: Pre-Emergence Activity AMARE (100=total damage to plant; 0=no damage to plant)
Procedure: as §1, §2, §3

[5] = tested on: Alopecurus myosuroides (ALOMY); assay: Example B pre-emergence herbicidal activity; conditions: 312 h, rate 250 g/ha, evaluated after 13 days, read-out: Pre-Emergence Activity ALOMY (100=total damage to plant; 0=no damage to plant)
Procedure: as §1, §2, §3

[6] = tested on: Echinochloa crus-galli (ECHCG); assay: Example B post-emergence herbicidal activity; conditions: 312 h, rate 250 g/ha, evaluated after 13 days, read-out: Post-emergence activity ECHCG (100=total damage to plant; 0=no damage to plant)
Procedure: as §1, §2, §3

[7] = tested on: Avena fatua (AVEFA); assay: Example B post-emergence herbicidal activity; conditions: 312 h, rate 250 g/ha, evaluated after 13 days, read-out: Post-emergence activity AVEFA (100=total damage to plant; 0=no damage to plant)
Procedure: as §1, §2, §3

[8] = tested on: Setaria faberi (SETFA); assay: Example B post-emergence herbicidal activity; conditions: 312 h, rate 250 g/ha, evaluated after 13 days, read-out: Post-emergence activity SETFA (100=total damage to plant; 0=no damage to plant)
Procedure: as §1, §2, §3

[9] = tested on: Amaranthus retoflexus (AMARE); assay: Example B post-emergence herbicidal activity; conditions: Amaranthus retroflexus, 312 h, rate 250 g/ha, evaluated after 13 days, read-out: Post-emergence activity AMARE (100=total damage to plant; 0=no damage to plant)
Procedure: as §1, §2, §3

[10] = tested on: Alopecurus myosuroides (ALOMY); assay: Example B post-emergence herbicidal activity; conditions: 312 h, rate 250 g/ha, evaluated after 13 days, read-out: Post-emergence activity ALOMY (100=total damage to plant; 0=no damage to plant)
Procedure: as §1, §2, §3

Row | Compound | pest or weed control at 250 g/ha [1] | pest or weed control at 250 g/ha [2] | pest or weed control at 250 g/ha [3] | pest or weed control at 250 g/ha [4] | pest or weed control at 250 g/ha [5] | pest or weed control at 250 g/ha [6] | pest or weed control at 250 g/ha [7] | pest or weed control at 250 g/ha [8] | pest or weed control at 250 g/ha [9] | pest or weed control at 250 g/ha [10]
1 | Cc1sc(-c2ccc(Cl)cc2F)nc1C1C(=O)[C@@H]2CC[C@@H](C2)C1=O (stereo partly shown) [Compound T13] | 100% | 40% | 100% | 0% | 90% | 100% | 90% | 100% | 0% | 100%
2 | CCc1sc(-c2ccc(Cl)cc2F)nc1C1C(=O)[C@@H]2CC[C@@H](C2)C1=O (stereo partly shown) [Compound T26] | 100% | 60% | 100% | 0% | 90% | 100% | 100% | 100% | 40% | 100%
3 | Cc1sc(-c2ccc(C(C)C)cc2)nc1C1C(=O)[C@@H]2CC[C@@H](C2)C1=O (stereo partly shown) [Compound T87] | 60% | 50% | 60% | 20% | 20% | 90% | 60% | 90% | 0% | 50%
4 | CCc1sc(-c2ccc(Cl)c(Cl)c2)nc1C1C(=O)[C@@H]2CC[C@@H](C2)C1=O (stereo partly shown) [Compound T22] | 80% | 20% | 100% | 20% | 70% | 90% | 90% | 90% | 0% | 90%
5 | O=C1C(c2nc(-c3ccc(Cl)cc3)sc2Cl)C(=O)[C@H]2CC[C@@H]1C2 (stereo partly shown) [Compound T55] | 100% | 100% | 100% | 0% | 100% | 100% | 100% | 100% | 0% | 100%
6 | CCc1sc(-c2ccc(Br)cn2)nc1C1C(=O)[C@@H]2CC[C@@H](C2)C1=O (stereo partly shown) [Compound T39] | 100% | 0% | 90% | 0% | 90% | 100% | 100% | 100% | 0% | 100%
7 | Cc1sc(-c2ccc(Cl)s2)nc1C1C(=O)[C@@H]2CC[C@@H](C2)C1=O (stereo partly shown) [Compound T34] | 20% | 0% | 20% | 0% | 20% | 80% | 0% | 90% | 0% | 70%
8 | CCc1sc(-c2ccc(Cl)cc2)nc1C1=C(OC(=O)C(C)(C)C)C2CCC(C2)C1=O (stereo not shown) [Compound P2, 2,2-dimethylpropionic acid 3-[2-(4-chloro-phenyl)-5-ethylthiazol-4-yl]-4-oxobicyclo[3.2.1]oct-2-en-2-yl ester] | 100% | 40% | 100% | 0% | 80% | 100% | 100% | 100% | 0% | 100%
9 | CCOC(=O)/C=C/OC1=C(c2nc(-c3ccc(Cl)cc3)sc2CC)C(=O)[C@H]2CC[C@@H]1C2 [Compound P5] | 40% | 30% | 100% | 0% | 100% | 100% | 90% | 100% | 0% | 100%
10 | Cc1sc(-c2ccc(Cl)c(Cl)c2)nc1C1C(=O)[C@@H]2CC[C@@H](C2)C1=O (stereo partly shown) [Compound T9] | 50% | 0% | 50% | 0% | 30% | 70% | 0% | 100% | 0% | 60%
11 | CCc1sc(-c2ccc3ccccc3c2)nc1C1C(=O)[C@@H]2CC[C@@H](C2)C1=O (stereo partly shown) [Compound T99] | 60% | 30% | 60% | 20% | 50% | 100% | 100% | 100% | 0% | 100%
12 | COCOc1ccc(-c2nc(C3C(=O)[C@@H]4CC[C@@H](C4)C3=O)c(C)s2)cc1 (stereo partly shown) [Compound T66] | 30% | 0% | 30% | 0% | 10% | 70% | 0% | 70% | 0% | 10%
13 | Cc1cc(Br)ccc1-c1nc(C2C(=O)[C@@H]3CC[C@@H](C3)C2=O)c(C)s1 (stereo partly shown) [Compound T37] | 60% | 30% | 90% | 0% | 30% | 100% | 90% | 100% | 0% | 100%
14 | CCc1sc(-c2ccc(OC)c(F)c2)nc1C1C(=O)[C@@H]2CC[C@@H](C2)C1=O (stereo partly shown) [Compound T111] | 100% | 90% | 80% | 0% | 50% | 100% | 100% | 100% | 0% | 100%
15 | CCc1sc(-c2ccc(Br)cc2)nc1C1C(=O)[C@@H]2CC[C@@H](C2)C1=O (stereo partly shown) [Compound T28] | 100% | 90% | 100% | 0% | 80% | 100% | 100% | 100% | 0% | 100%
16 | Cc1sc(-c2ccc(OC(F)F)cc2F)nc1C1C(=O)[C@@H]2CC[C@@H](C2)C1=O (stereo partly shown) [Compound T92] | 100% | 90% | 100% | 0% | 70% | 100% | 100% | 100% | 10% | 100%
